# Experimental data: ChEMBL document CHEMBL1129102, “Design, synthesis, and evaluation of fibrinogen inhibitors, -(p-amidinophenoxy) alkanoylaspartic acid derivatives” (Bioorg Med Chem Lett, 1996)
# Target: Integrin alpha-IIb/beta-3 (Homo sapiens, UniProt P05106+P08514)
# Assay: Inhibition of human platelet adhesion to fibrinogen
# Integrin alpha-IIb/beta-3, sequence (P05106 27-788 limits assumed): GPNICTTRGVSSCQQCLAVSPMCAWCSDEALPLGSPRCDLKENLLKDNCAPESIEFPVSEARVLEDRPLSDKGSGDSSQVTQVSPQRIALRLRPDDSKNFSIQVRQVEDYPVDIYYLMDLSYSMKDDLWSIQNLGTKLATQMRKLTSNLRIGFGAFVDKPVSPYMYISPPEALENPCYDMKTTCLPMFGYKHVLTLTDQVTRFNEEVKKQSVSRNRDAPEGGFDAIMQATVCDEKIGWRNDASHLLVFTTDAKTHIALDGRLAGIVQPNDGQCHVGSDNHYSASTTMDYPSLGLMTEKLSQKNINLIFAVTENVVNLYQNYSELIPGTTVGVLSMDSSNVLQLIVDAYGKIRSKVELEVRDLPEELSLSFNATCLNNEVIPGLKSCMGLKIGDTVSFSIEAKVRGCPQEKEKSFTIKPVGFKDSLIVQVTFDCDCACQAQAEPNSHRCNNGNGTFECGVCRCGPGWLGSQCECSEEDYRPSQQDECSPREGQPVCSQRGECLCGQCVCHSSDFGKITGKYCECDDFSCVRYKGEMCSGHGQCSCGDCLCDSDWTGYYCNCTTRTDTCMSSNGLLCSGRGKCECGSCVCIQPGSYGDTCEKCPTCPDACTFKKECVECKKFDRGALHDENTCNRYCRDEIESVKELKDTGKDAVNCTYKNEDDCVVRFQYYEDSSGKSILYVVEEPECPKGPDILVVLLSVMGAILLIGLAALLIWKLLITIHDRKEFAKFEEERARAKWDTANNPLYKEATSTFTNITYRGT
# Integrin alpha-IIb/beta-3, sequence (P08514 32-887 limits assumed): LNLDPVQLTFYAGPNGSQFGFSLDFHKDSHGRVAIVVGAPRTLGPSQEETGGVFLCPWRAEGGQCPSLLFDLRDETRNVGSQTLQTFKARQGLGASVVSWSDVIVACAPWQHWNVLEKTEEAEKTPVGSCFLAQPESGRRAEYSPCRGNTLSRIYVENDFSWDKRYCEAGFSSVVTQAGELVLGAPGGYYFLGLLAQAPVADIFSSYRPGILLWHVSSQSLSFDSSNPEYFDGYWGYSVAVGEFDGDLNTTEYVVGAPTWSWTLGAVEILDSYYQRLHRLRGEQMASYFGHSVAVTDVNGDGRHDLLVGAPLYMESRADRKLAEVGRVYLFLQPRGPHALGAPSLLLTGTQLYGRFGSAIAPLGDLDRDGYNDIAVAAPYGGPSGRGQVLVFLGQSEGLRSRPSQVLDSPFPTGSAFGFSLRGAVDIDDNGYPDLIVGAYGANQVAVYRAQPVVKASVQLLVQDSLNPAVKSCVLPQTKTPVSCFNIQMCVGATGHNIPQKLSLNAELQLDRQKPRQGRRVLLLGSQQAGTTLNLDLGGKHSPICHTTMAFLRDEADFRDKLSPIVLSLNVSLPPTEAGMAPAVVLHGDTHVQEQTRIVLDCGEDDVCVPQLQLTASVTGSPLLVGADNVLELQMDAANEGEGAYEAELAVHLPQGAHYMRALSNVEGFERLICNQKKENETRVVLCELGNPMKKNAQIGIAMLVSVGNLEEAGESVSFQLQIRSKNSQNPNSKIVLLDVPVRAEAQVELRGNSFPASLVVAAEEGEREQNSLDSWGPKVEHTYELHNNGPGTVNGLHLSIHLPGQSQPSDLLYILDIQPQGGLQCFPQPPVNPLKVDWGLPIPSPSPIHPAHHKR
# Integrin alpha-IIb/beta-3, sequence (P08514 891-1039 limits assumed): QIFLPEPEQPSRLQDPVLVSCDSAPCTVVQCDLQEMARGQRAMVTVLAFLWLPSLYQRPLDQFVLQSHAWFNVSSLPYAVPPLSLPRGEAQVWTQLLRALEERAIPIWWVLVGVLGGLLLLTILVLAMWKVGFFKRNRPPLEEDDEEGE
row,SMILES,IC50 [nM]
1,N=C(N)c1ccc(OCCCCC(=O)N[C@@H](CC(=O)O)C(=O)N[C@@H](Cc2ccc(O)cc2)C(=O)O)cc1,640
2,CC(C)[C@H](NC(=O)[C@H](CC(=O)O)NC(=O)CCCOc1ccc(C(=N)N)cc1)C(=O)O,88
3,CN(C(=O)[C@H](CC(=O)O)NC(=O)CCCCOc1ccc(C(=N)N)cc1)[C@@H](Cc1ccc(O)cc1)C(=O)O,270
4,CC(C)[C@H](NC(=O)[C@H](CC(=O)O)NC(=O)CCCCOc1ccc(C(=N)N)cc1)C(=O)O,230
